Data reported in patent US5366983A, “Use of quaternary ammonium compounds to remove salmonella contamination from meat products” (The Board of Trustees of The University of Arkansas, priority 1992, dated 1994).
Read-outs that look alike come from different tables or passages of the source.

Experiments:
[1] = tested on: Salmonella typhimurium TA100; assay: Salmonella reversion assay, TA100
Protocol: (§1) Test strains TA98 and TA100 were obtained from Bruce N. Ames (University of California, Berkley, Calif.). Mutagenicities were determined both in the absence of and in the presence of a mammalian liver S9 activating system. S9 is the 9000×g supernatant prepared from liver homogenates from Aroclor 1254 stimulated male Sprague Dawley rats. The S9 was purchased from Molecular Toxicology, Inc. (Anapolis, Md.).
(§2) Bacterial broth cultures were grown overnight at 37° with shaking in Oxoid Broth #2. For assays in the absence of S9, a 0.5 ml aliquot of 100 mM Sodium Phosphate Buffer, pH 7.4, was added to sterile 13×100 mm capped culture tubes. For assays in the presence of S9, a 0.5 ml aliquot of 10% S9 mix was added. The S9 mix consisted of 8 mM magnesium chloride, 33 mM potassium chloride, 5 mM glucose-6-phosphate, 4 mM NADP, 100 mM sodium phosphate, pH 7.4 and S9 in a concentration of approximately 1.46 mg protein/ml.
(§3) The culture tubes were placed in an ice bath and 0.1 ml of the bacterial suspension and 0.1 ml of a DMSO solution of the test compound were added. The mixture was vortexed gently and incubated at 37° for 20 minutes with shaking in a water bath. Molten top agar (2.0 ml) containing 0.5 mM histidine HCl and 0.5 mM biotin were added, and the mixture was vortexed gently and poured onto a minimal glucose plate. After allowing the agar to solidify, the plates were inverted and placed in a 37° incubator in the dark for 48 hours. The revertant (mutant) colonies were counted and the background lawn was examined on all plates. A response that was two times that of the DMSO solvent control was considered a positive response.

[2] = tested on: Salmonella typhimurium ATCC 14028 attached to human buccal epithelial cells; assay: microbe, parasite or virus in culture; assay type: cell-based; conditions: Table A-3
Protocol: Additional studies on the detachment of Salmonella typhimurium from human buccal epithelial cells were conducted.
S. typhimurium ATCC 14028 was grown in nutrient broth (BBL Microbiology system, Cockeysville, Md.) for 16 hours at 37° C. The cells were centrifuged and washed twice with 0.008 M phosphate buffered saline (PBS, at pH 7.2) at 4500 rpm for 10 minutes. The last suspension was diluted in PBS to obtain a cell concentration 0.5 to 1×10^9 cells/ml using spectrophotometric measurement. Human epithelial cells were obtained by swabbing the buccal surface of a healthy, nonsmoking donor. […] The number of living cells was estimated and the suspension was diluted to 0.5 to 1×10^5 cells/ml.
The suspension of the human buccal cells was mixed with an equal volume of the bacterial suspension (3.0 ml), or PBS (0.8 ml) in 10 ml Erlenmeyer flasks. Contact was allowed for 1.5 hours at 35° C. under agitation. After incubation, 1.0 ml of each suspension was transferred into an Eppendorff vial, centrifuged at 3000 rpm for 10 minutes, and washed with PBS. The cells were treated with 1.0 ml PBS or 1.0 ml of the test chemical solution. Treatment was performed by suspending, gently vortexing, and centrifuging at 1500 rpm for 10 minutes. After the treatment, the cells were washed and placed on microscopic slides for examination.
EC50 represents the inverse measurement of the potency of a compound. EC50 values were determined by a nonlinear regression of the detachment effect versus the cationic surfactant concentration data from Table A-3.

[3] = tested on: Salmonella typhimurium TA98; assay: Salmonella reversion assay, TA98
Protocol: as §1, §2, §3

[4] = tested on: Salmonella typhimurium TA98; assay: Salmonella reversion assay after heating at 205° C., TA98; assay type: cell-based; conditions: for Revertants/plate: heated at 205° C.
Protocol: Test strains TA98 and TA100 were used. Again, mutagenicities were determined both in the absence and in the presence of the mammalian liver S9 activating system.
A response that was two times that of the solvent control was considered a positive response.

[5] = tested on: Salmonella typhimurium ATCC 14028; assay: Effect on viability of Salmonella in suspension (Tables D-1 to D-3); assay type: cell-based; conditions: Table D-1
How it was run: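 Bactericidal activity against Salmonella measured in suspension; EC50 derived by nonlinear regression of kill versus molar concentration. Na2-EDTA and EGTA dissolved and diluted in 0.04 M PPB; EGTA heated 15 minutes at 80° C., adjusted to pH 7.0 with NaOH, filter-sterilized.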

adherent S. typhimurium = conditions: 10 minutes

Which Revertants/plate ([1]; TA100, +S9, 5 μg/plate) does the source give for CCCCCCCCCCCCCCCC[n+]1ccccc1 [CPC, cetylpyridinium chloride] here?
Its Revertants/plate is 129 ± 14 Revertants/plate.

What about the Revertants/plate ([1]; TA100, +S9, 10 μg/plate) of the same molecule?
Its Revertants/plate is 136 ± 11 Revertants/plate.

What about the Revertants/plate ([1]; TA100, +S9, 20 μg/plate) of the same molecule?
Its Revertants/plate is 126 ± 14 Revertants/plate.

What about the Revertants/plate ([1]; TA100, +S9, 40 μg/plate) of the same molecule?
The Revertants/plate was 125 ± 5 Revertants/plate.

And the Revertants/plate ([1]; TA100, +S9, 50 μg/plate)?
The Revertants/plate was 126 ± 10 Revertants/plate.

What about the Revertants/plate ([1]; TA100, -S9, 1 μg/plate) of the same molecule?
The Revertants/plate was 98 ± 5 Revertants/plate.

What about the Revertants/plate ([1]; TA100, -S9, 5 μg/plate) of the same molecule?
Its Revertants/plate is 133 ± 5 Revertants/plate.

What about the Revertants/plate ([1]; TA100, -S9, 10 μg/plate) of the same molecule?
Its Revertants/plate is 130 ± 9 Revertants/plate.

And the “mutagenicity (in words)” value ([1]; TA100, absence of S9, low concentrations)?
The value was “nonmutagenic”.

What about the “mutagenicity and cytotoxicity (in words)” value ([1]; TA100, presence of S9) of the same molecule?
The value was “neither mutagenic nor cytotoxic”.

What about the “adherence, mean value of attached bacteria” value (shortened to “adherence, mean value”) ([2]; 2.5 ug/ml) of the same molecule?
Its value is 73 ± 55.

What about the “adherence, mean value” value ([2]; 5 ug/ml) of the same molecule?
The value was 42 ± 22.

What about the “adherence, mean value” value ([2]; 10 ug/ml) of the same molecule?
The value was 28 ± 10.

And the Revertants/plate ([3]; TA98, +S9, 1 μg/plate)?
The Revertants/plate was 25 ± 2 Revertants/plate.

What about the Revertants/plate ([3]; TA98, +S9, 5 μg/plate) of the same molecule?
The Revertants/plate was 28 ± 1 Revertants/plate.

What about the Revertants/plate ([3]; TA98, +S9, 10 μg/plate) of the same molecule?
The Revertants/plate was 25 ± 3 Revertants/plate.

What about the Revertants/plate ([3]; TA98, +S9, 20 μg/plate) of the same molecule?
Its Revertants/plate is 28 ± 2 Revertants/plate.

And the Revertants/plate ([3]; TA98, +S9, 40 μg/plate)?
The Revertants/plate was 30 ± 1 Revertants/plate.

And the Revertants/plate ([3]; TA98, +S9, 50 μg/plate)?
Its Revertants/plate is 35 ± 6 Revertants/plate.

And the Revertants/plate ([3]; TA98, -S9, 1 μg/plate)?
Its Revertants/plate is 24 ± 3 Revertants/plate.

And the Revertants/plate ([3]; TA98, -S9, 5 μg/plate)?
The Revertants/plate was 18 ± 4 Revertants/plate.

What about the “mutagenicity (in words)” value ([3]; TA98, absence of S9, low concentrations) of the same molecule?
Its value is “nonmutagenic”.

What about the “mutagenicity and cytotoxicity (in words)” value ([3]; TA98, presence of S9) of the same molecule?
Its value is “neither mutagenic nor cytotoxic”.

And the Revertants/plate ([4]; TA98, +S9, 0.1 μg/plate)?
Its Revertants/plate is 26 ± 4 Revertants/plate.

And the Revertants/plate ([4]; TA98, +S9, 1.0 μg/plate)?
The Revertants/plate was 20 ± 1 Revertants/plate.

And the Revertants/plate ([4]; TA98, +S9, 5.0 μg/plate)?
Its Revertants/plate is 25 ± 4 Revertants/plate.

What about the Revertants/plate ([4]; TA98, +S9, 10.0 μg/plate) of the same molecule?
The Revertants/plate was 22 ± 3 Revertants/plate.

And the Revertants/plate ([4]; TA98, -S9, 0.1 μg/plate)?
Its Revertants/plate is 16 ± 3 Revertants/plate.

And the Revertants/plate ([4]; TA98, -S9, 1.0 μg/plate)?
The Revertants/plate was 20 ± 5 Revertants/plate.

And the Revertants/plate ([4]; TA98, -S9, 5.0 μg/plate)?
The Revertants/plate was 22 ± 3 Revertants/plate.

What about the Revertants/plate ([4]; TA98, -S9, 10.0 μg/plate) of the same molecule?
Its Revertants/plate is 25 ± 3 Revertants/plate.

What about the “mutagenicity after heating in vegetable oil (in words)” value ([4]; TA98, absence or presence of S9, all concentrations tested) of the same molecule?
The value was “did not produce substances which are mutagenic”.

And the bacterial viability ([5]; 20 ug/ml)?
Its bacterial viability is 1.84 ± 0.087 × 10^8 CFU/ml.

What about the bacterial viability ([5]; 22.5 ug/ml) of the same molecule?
Its bacterial viability is 9.07 ± 2.16 × 10^7 CFU/ml.

What about the bacterial viability ([5]; 25 ug/ml) of the same molecule?
The bacterial viability was 5.15 ± 1.18 × 10^6 CFU/ml.

And the “Colony Count (±SD)” value (adherent S. typhimurium; 5 μg/ml)?
The value was 2.52 ± 2.69 × 10^3.

What about the “Colony Count (±SD)” value (adherent S. typhimurium; 10 μg/ml) of the same molecule?
Its value is 4.40 ± 5.68 × 10^2.

What about the “Colony Count (±SD)” value (adherent S. typhimurium; 50 μg/ml) of the same molecule?
Its value is 2.0 ± 4.5 × 10^1.
